In patent publication US11286268B1, “EIF4E-inhibiting compounds and methods” (EFFECTOR THERAPEUTICS, INC., priority 2019, dated 2022):

Each molecule was assayed against recombinant eIF4E (Homo sapiens (Human), UniProt P06730) (assay: Fluorescence polarization competition assay for eIF4E binding potency). Details: inhibition of eIF4E/EDA-m7GDP-ATTO-550 binding; calculated IC50 values, Table 4B; read-out: IC50.
How it was run: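 Competition of test compound against 20 nM EDA-m^7GDP-ATTO-550 for 75 nM recombinant eIF4E, pre-incubated 5 min, in 20 mM Tris pH 7.5, 100 mM NaCl, 1 mM DTT, 0.02% Tween-20, 1% DMSO. Equilibrated 30 min at room temperature, dark; fluorescence polarization read. IC50 from 8-point, 3-fold dilution series.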

Sequence of recombinant eIF4E (P06730 whole entry): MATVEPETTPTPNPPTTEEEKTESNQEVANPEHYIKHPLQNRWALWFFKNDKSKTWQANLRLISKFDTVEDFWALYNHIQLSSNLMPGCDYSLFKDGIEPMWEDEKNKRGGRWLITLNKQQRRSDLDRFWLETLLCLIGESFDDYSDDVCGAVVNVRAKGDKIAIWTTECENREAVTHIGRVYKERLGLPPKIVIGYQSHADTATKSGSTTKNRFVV

| SMILES | IC50 [nM] |
| --- | --- |
| Cc1nc2cnc(N(C)C3CCN(CC(F)(F)F)CC3)c(C#N)c2c(=O)n1CC#Cc1ccc(Cl)cc1-c1ccnc2c(C(=O)NS(=O)(=O)c3cn(C)cn3)csc12 [compound 1667] | 12.2 |
| Cc1nc2cnc(N(C)C3CCN(CC(F)(F)F)CC3)c(C#N)c2c(=O)n1CC#Cc1ccc(Cl)cc1-c1ccnc2c(C(=O)NS(=O)(=O)c3ccnn3C)csc12 [compound 1668] | 5.67 |
| Cc1nc2cnc(N(C)C3CCN(CC(F)(F)F)CC3)c(C#N)c2c(=O)n1CC#Cc1ccc(Cl)cc1-c1ccnc2c(C(=O)NS(=O)(=O)CF)csc12 [compound 1669] | 9.17 |
| Cc1nc2cnc(N(C)C3CCN(CC(F)(F)F)CC3)c(C#N)c2c(=O)n1CC#Cc1ccc(Cl)cc1-c1ccnc2c(C(=O)NS(=O)(=O)CC#N)csc12 [compound 1670] | 5.68 |
| Cc1nc2cnc(N(C)C3CCN(CC(F)(F)F)CC3)c(C#N)c2c(=O)n1CC#Cc1ccc(Cl)cc1-c1ccnc2c(C(=O)NS(=O)(=O)CCC#N)csc12 [compound 1671] | 4.14 |
| Cc1nc2c(c(=O)n1CC#Cc1ccc(Cl)cc1-c1ccnc3c(C(=O)NS(=O)(=O)CC(C)(C)C#N)csc13)C(C#N)=C(N(C)C1CCN(CC(F)(F)F)CC1)NC2 [compound 1672] | 13.2 |
| Cc1nc2cnc(N(C)C3CCN(CC(F)(F)F)CC3)c(C#N)c2c(=O)n1CC#Cc1ccc(Cl)cc1-c1ccnc2c(C(=O)NS(=O)(=O)Cc3ccccn3)csc12 [compound 1673] | 7.22 |
| Cc1nc2cnc(N(C)C3CCN(CC(C)(F)F)CC3)c(C#N)c2c(=O)n1CC#Cc1ccc(Cl)cc1-c1ccnc2c(C(=O)NS(=O)(=O)c3ccc(C(F)(F)F)nc3)csc12 [compound 1674] | 6.5 |
| Cc1nc2cnc(N(C)C3CCN(CC(F)(F)F)CC3)c(C#N)c2c(=O)n1CC#Cc1ccc(Cl)cc1-c1ccnc2c(C(=O)NS(=O)(=O)c3cscn3)csc12 [compound 1675] | 4.11 |
| Cc1nc2cnc(N(C)C3CCN(CC(C)(F)F)CC3)c(C#N)c2c(=O)n1CC#Cc1ccc(Cl)cc1-c1ccnc2c(C(=O)NS(=O)(=O)c3ccn(C)n3)csc12 [compound 1676] | 4.33 |
| Cc1nc2cnc(N(C)C3CCN(CC(F)(F)F)CC3)c(C#N)c2c(=O)n1CC#Cc1ccc(Cl)cc1-c1ccnc2c(C(=O)NS(=O)(=O)C3CC(F)(F)C3)csc12 [compound 1677] | 12.9 |
| Cc1cccc(S(=O)(=O)NC(=O)c2csc3c(-c4cc(Cl)ccc4C#CCn4c(C)nc5cnc(N(C)C6CCN(CC(C)(F)F)CC6)c(C#N)c5c4=O)ccnc23)n1 [compound 1678] | 28 |
| Cc1nc2cnc(N(C)C3CCN(CC(C)(F)F)CC3)c(C#N)c2c(=O)n1CC#Cc1ccc(Cl)cc1-c1ccnc2c(C(=O)NS(=O)(=O)c3ccc(C(F)(F)F)cn3)csc12 [compound 1679] | 29.3 |
| Cc1ccc(S(=O)(=O)NC(=O)c2csc3c(-c4cc(Cl)ccc4C#CCn4c(C)nc5cnc(N(C)C6CCN(CC(C)(F)F)CC6)c(C#N)c5c4=O)ccnc23)cn1 [compound 1680] | 23.3 |
| COc1ccc(S(=O)(=O)NC(=O)c2csc3c(-c4cc(Cl)ccc4C#CCn4c(C)nc5cnc(N(C)C6CCN(CC(C)(F)F)CC6)c(C#N)c5c4=O)ccnc23)cn1 [compound 1681] | 8.27 |
| Cc1cc(S(=O)(=O)NC(=O)c2csc3c(-c4cc(Cl)ccc4C#CCn4c(C)nc5cnc(N(C)C6CCN(CC(C)(F)F)CC6)c(C#N)c5c4=O)ccnc23)ccn1 [compound 1682] | 15.1 |
| COc1cc(S(=O)(=O)NC(=O)c2csc3c(-c4cc(Cl)ccc4C#CCn4c(C)nc5cnc(N(C)C6CCN(CC(C)(F)F)CC6)c(C#N)c5c4=O)ccnc23)ccn1 [compound 1683] | 18.3 |
| Cc1nc2cnc(N(C)C3C[C@H]4C[C@@H]3CN4CC(C)(F)F)c(C#N)c2c(=O)n1CCOc1ccc(Cl)cc1-c1ccnc2c(C(=O)O)csc12 (stereo partly drawn) [compound 1688] | 12.7 |
| Cc1nc2cnc(N(C)C3C[C@H]4C[C@@H]3CN4CC(C)(F)F)c(C#N)c2c(=O)n1CC#Cc1ccc(Cl)cc1-c1ccnc2c(C(=O)O)csc12 (stereo partly drawn) [compound 1689] | 22.2 |
| Cc1nc2cnc(N(C)[C@H]3[C@@H]4CC[C@H]3CN(CC(C)(F)F)C4)c(C#N)c2c(=O)n1CC#Cc1ccc(Cl)cc1-c1ccnc2c(C(=O)O)csc12 [compound 1690] | 27.4 |
| Cc1nc2cnc(N(C)C3[C@@H]4C[C@H]3CN(CC(C)(F)F)C4)c(C#N)c2c(=O)n1CC#Cc1ccc(Cl)cc1-c1ccnc2c(C(=O)O)csc12 (stereo partly drawn) [compound 1691] | 17.9 |
| Cc1nc2cnc(N(C)C3CCN(CC(F)(F)C(F)F)CC3)c(C#N)c2c(=O)n1CC#Cc1ccc(Cl)cc1-c1ccnc2c(C(=O)NS(C)(=O)=O)csc12 [compound 1703] | 6 |
| Cc1nc2cnc(N(C)C3CCN(CC(F)(F)C(F)F)CC3)c(C#N)c2c(=O)n1CC#Cc1ccc(Cl)cc1-c1ccnc2c(C(=O)NS(=O)(=O)C3COC3)csc12 [compound 1704] | 6.54 |
| Cc1nc2cnc(N(C)C3CCN(CC(F)(F)C(F)F)CC3)c(C#N)c2c(=O)n1CC#Cc1ccc(Cl)cc1-c1ccnc2c(C(=O)NS(=O)(=O)c3ccncc3)csc12 [compound 1705] | 4.8 |

| SMILES | IC50 [nM] |
| --- | --- |
| Cc1nc2cnc(N(C)C3CCN(CC(F)(F)C(F)F)CC3)c(C#N)c2c(=O)n1CC#Cc1ccc(Cl)cc1-c1ccnc2c(C(=O)NS(=O)(=O)c3ccccn3)csc12 [compound 1706] | 12.1 |
| Cc1nc2cnc(N(C)C3CCN(CC(F)(F)C(F)F)CC3)c(C#N)c2c(=O)n1CC#Cc1ccc(Cl)cc1-c1ccnc2c(C(=O)NS(=O)(=O)c3cccnc3)csc12 [compound 1707] | 15.7 |
| CCN(c1ncc2nc(C)n(CC#Cc3ccc(Cl)cc3-c3ccnc4c(C(=O)NS(=O)(=O)c5ccncc5)csc34)c(=O)c2c1C#N)C1CCN(CC(F)(F)C(F)F)CC1 [compound 1708] | 16.2 |
| CCN(c1ncc2nc(C)n(CC#Cc3ccc(Cl)cc3-c3ccnc4c(C(=O)NS(=O)(=O)c5cccnc5)csc34)c(=O)c2c1C#N)C1CCN(CC(F)(F)C(F)F)CC1 [compound 1709] | 28.4 |
| Cc1nc2cnc(N(C)C3CCN(CCC(C)(F)F)CC3)c(C#N)c2c(=O)n1CC#Cc1ccc(Cl)cc1-c1ccnc2c(C(=O)NS(C)(=O)=O)csc12 [compound 1713] | 15.8 |
| Cc1nc2cnc(N(C)C3CCN(CC4(C(F)(F)F)CCO4)CC3)c(C#N)c2c(=O)n1CC#Cc1ccc(Cl)cc1-c1ccnc2c(C(=O)O)csc12 (stereo not drawn) [compound 1717] | 13.4 |
| Cc1nc2cnc(N(C)C3CCN([C@H]4C[C@@H]4C(F)(F)F)CC3)c(C#N)c2c(=O)n1CC#Cc1ccc(Cl)cc1-c1ccnc2c(C(=O)O)csc12 [compound 1724] | 4.07 |
| Cc1nc2cnc(N(C)C3CCN([C@@H]4C[C@H]4C(F)(F)F)CC3)c(C#N)c2c(=O)n1CC#Cc1ccc(Cl)cc1-c1ccnc2c(C(=O)O)csc12 [compound 1727] | 3.84 |
| CCN(c1ncc2nc(C)n(CC#Cc3ccc(Cl)cc3-c3ccnc4c(C(=O)NS(=O)(=O)CC)csc34)c(=O)c2c1C#N)C1CCN(C2COC2)CC1 [compound 1733] | 8.11 |
| CCN(c1ncc2nc(C)n(CC#Cc3ccc(Cl)cc3-c3ccnc4c(C(=O)NS(=O)(=O)CC(F)(F)F)csc34)c(=O)c2c1C#N)C1CCN(C2COC2)CC1 [compound 1734] | 19.4 |
| CCN(c1ncc2nc(C)n(CC#Cc3ccc(Cl)cc3-c3ccnc4c(C(=O)NS(=O)(=O)CC#N)csc34)c(=O)c2c1C#N)C1CCN(C2COC2)CC1 [compound 1735] | 33.6 |
| CCN(c1ncc2nc(C)n(CC#Cc3ccc(Cl)cc3-c3ccnc4c(C(=O)NS(=O)(=O)CCC#N)csc34)c(=O)c2c1C#N)C1CCN(C2COC2)CC1 [compound 1736] | 12.6 |
| CCN(c1ncc2nc(C)n(CC#Cc3ccc(Cl)cc3-c3ccnc4c(C(=O)NS(=O)(=O)CC(C)(C)C#N)csc34)c(=O)c2c1C#N)C1CCN(C2COC2)CC1 [compound 1737] | 14.3 |
| CCN(c1ncc2nc(C)n(CC#Cc3ccc(Cl)cc3-c3ccnc4c(C(=O)NS(=O)(=O)Cc5ccccn5)csc34)c(=O)c2c1C#N)C1CCN(C2COC2)CC1 [compound 1738] | 25.5 |
| CCN(c1ncc2nc(C)n(CC#Cc3ccc(Cl)cc3-c3ccnc4c(C(=O)NS(=O)(=O)C5CC(F)(F)C5)csc34)c(=O)c2c1C#N)C1CCN(C2COC2)CC1 [compound 1739] | 33.3 |
| CCN(c1ncc2nc(C)n(CC#Cc3ccc(Cl)cc3-c3ccnc4c(C(=O)NS(=O)(=O)c5ccncc5)csc34)c(=O)c2c1C#N)C1CCN(C2COC2)CC1 [compound 1740] | 12.6 |
| CCN(c1ncc2nc(C)n(CC#Cc3ccc(Cl)cc3-c3ccnc4c(C(=O)NS(=O)(=O)c5cccnc5)csc34)c(=O)c2c1C#N)C1CCN(C2COC2)CC1 [compound 1741] | 11 |
| CCN(c1ncc2nc(C)n(CC#Cc3ccc(Cl)cc3-c3ccnc4c(C(=O)NS(=O)(=O)c5ccccn5)csc34)c(=O)c2c1C#N)C1CCN(C2COC2)CC1 [compound 1742] | 5.43 |
| CCN(c1ncc2nc(C)n(CC#Cc3ccc(Cl)cc3-c3ccnc4c(C(=O)NS(=O)(=O)C(F)(F)F)csc34)c(=O)c2c1C#N)C1CCN(C2COC2)CC1 [compound 1744] | 11.5 |
| CCN(c1ncc2nc(C)n(CC#Cc3ccc(Cl)cc3-c3ccnc4c(C(=O)NS(=O)(=O)CC(F)F)csc34)c(=O)c2c1C#N)C1CCN(C2COC2)CC1 [compound 1745] | 11 |
| CCN(c1ncc2nc(C)n(CC#Cc3ccc(Cl)cc3-c3ccnc4c(C(=O)NS(=O)(=O)C(C)C)csc34)c(=O)c2c1C#N)C1CCN(C2COC2)CC1 [compound 1746] | 10.8 |
| CCN(c1ncc2nc(C)n(CC#Cc3ccc(Cl)cc3-c3ccnc4c(C(=O)NS(=O)(=O)C(C)(C)C)csc34)c(=O)c2c1C#N)C1CCN(C2COC2)CC1 [compound 1747] | 16.5 |
| CCN(c1ncc2nc(C)n(CC#Cc3ccc(Cl)cc3-c3ccnc4c(C(=O)NS(=O)(=O)C5CCC5)csc34)c(=O)c2c1C#N)C1CCN(C2COC2)CC1 [compound 1748] | 17.5 |
| CCN(c1ncc2nc(C)n(CC#Cc3ccc(Cl)cc3-c3ccnc4c(C(=O)NS(=O)(=O)C5CC5)csc34)c(=O)c2c1C#N)C1CCN(C2COC2)CC1 [compound 1749] | 16.4 |
